What was measured:
[1] = target: ATP-binding cassette sub-family C member 2 (Homo sapiens, UniProt Q92887); assay: Inhibition of MRP2 (unknown origin) in presence of ATP by membrane vesicular transport assay; assay type: cell membranes, Membrane vesicle
[2] = Unbound AUClast in female C57BL/6J mouse plasma at 30 mg/kg, po measured after 24 hrs by UPLC-MS/MS analysis; assay type: ADME, organism-based; conditions: in vivo
[3] = Total AUClast in female C57BL/6J mouse lung at 30 mg/kg, po measured after 24 hrs by UPLC-MS/MS analysis; assay type: ADME, organism-based; conditions: in vivo
[4] = Total Cmax in female C57BL/6J mouse lung at 30 mg/kg, po measured after 24 hrs by UPLC-MS/MS analysis; assay type: ADME, organism-based
[5] = target: Lysophosphatidic acid receptor 4 (Homo sapiens, UniProt Q99677); assay: Antagonist activity at human LPA4 expressed in CHO cells in presence of IBMX pretreated for 30 mins followed by LPA addition and measured after 1 hrs by cAMP accumulation assay; assay type: functional, cell-based
[6] = Metabolic stability in female C57BL/6J mouse liver microsomes assessed as intrinsic clearance measured per mg of protein at 0.5 uM measured upto 45 mins in presence of NADPH regenerating system by HPLC-MS/MS analysis; assay type: ADME, Microsome; conditions: read-out: CLH
[7] = target: BSEP (Homo sapiens, UniProt O95342); assay: Inhibition of BSEP in cryopreserved sandwich-cultured human hepatocytes by measuring reduction in TCA biliary clearance using taurocholic acid as substrate at 50 uM relative to control; assay type: cell-based, Hepatocyte; conditions: cryopreserved sandwich-cultured hepatocytes, probe taurocholic acid
[8] = Total Cmax in female C57BL/6J mouse plasma at 30 mg/kg, po measured after 24 hrs by UPLC-MS/MS analysis; assay type: ADME, organism-based
[9] = Toxicity in cynomolgus monkey assessed as abnormal vocalization at 210 mg/kg/day, po bid measured after 4 days; assay type: organism-based, Macaca fascicularis; conditions: in vivo, 96 h, time 4 day
[10] = Unbound AUClast in female C57BL/6J mouse lung at 30 mg/kg, po measured after 24 hrs by UPLC-MS/MS analysis; assay type: ADME, organism-based; conditions: in vivo
[11] = Toxicity in cynomolgus monkey assessed as fasciculation at 210 mg/kg/day, po bid measured after 4 days; assay type: organism-based, Macaca fascicularis; conditions: in vivo, 96 h, time 4 day
[12] = Clearance in female C57BL/6J mouse at 2 mg/kg, iv measured after 24 hrs by UPLC-MS/MS analysis; assay type: ADME, organism-based; conditions: in vivo
[13] = Toxicity in cynomolgus monkey assessed as drug tolerance at 12.5 to 100 mg/kg/day, po bid measured after 4 days; assay type: organism-based, Macaca fascicularis; conditions: in vivo, 96 h, dose 12.5-100 mg/kg/day, time 4 day
[14] = Toxicity in cynomolgus monkey assessed as piloerection at 210 mg/kg/day, po bid measured after 4 days; assay type: organism-based, Macaca fascicularis; conditions: in vivo, 96 h, time 4 day
[15] = Tlast in female C57BL/6J mouse lung at 30 mg/kg, po measured after 24 hrs by UPLC-MS/MS analysis; assay type: ADME, organism-based; conditions: in vivo
[16] = Total AUClast in female C57BL/6J mouse plasma at 30 mg/kg, po measured after 24 hrs by UPLC-MS/MS analysis; assay type: ADME, organism-based; conditions: in vivo
[17] = Unbound Cmax in female C57BL/6J mouse plasma at 30 mg/kg, po measured after 24 hrs by UPLC-MS/MS analysis; assay type: ADME, organism-based; conditions: in vivo
[18] = Toxicity in cynomolgus monkey assessed as partially closed eyelids at 210 mg/kg/day, po bid measured after 4 days; assay type: organism-based, Macaca fascicularis; conditions: in vivo, 96 h, time 4 day
[19] = Unbound Cmax in female C57BL/6J mouse lung at 30 mg/kg, po measured after 24 hrs by UPLC-MS/MS analysis; assay type: ADME, organism-based; conditions: in vivo
[20] = target: T1, ATP-binding cassette sub-family C member 4 (Homo sapiens, UniProt O15439); assay: Inhibition of MRP4 (unknown origin) in presence of ATP by membrane vesicular transport assay; assay type: cell membranes, Membrane vesicle
T1 sequence (O15439 whole entry): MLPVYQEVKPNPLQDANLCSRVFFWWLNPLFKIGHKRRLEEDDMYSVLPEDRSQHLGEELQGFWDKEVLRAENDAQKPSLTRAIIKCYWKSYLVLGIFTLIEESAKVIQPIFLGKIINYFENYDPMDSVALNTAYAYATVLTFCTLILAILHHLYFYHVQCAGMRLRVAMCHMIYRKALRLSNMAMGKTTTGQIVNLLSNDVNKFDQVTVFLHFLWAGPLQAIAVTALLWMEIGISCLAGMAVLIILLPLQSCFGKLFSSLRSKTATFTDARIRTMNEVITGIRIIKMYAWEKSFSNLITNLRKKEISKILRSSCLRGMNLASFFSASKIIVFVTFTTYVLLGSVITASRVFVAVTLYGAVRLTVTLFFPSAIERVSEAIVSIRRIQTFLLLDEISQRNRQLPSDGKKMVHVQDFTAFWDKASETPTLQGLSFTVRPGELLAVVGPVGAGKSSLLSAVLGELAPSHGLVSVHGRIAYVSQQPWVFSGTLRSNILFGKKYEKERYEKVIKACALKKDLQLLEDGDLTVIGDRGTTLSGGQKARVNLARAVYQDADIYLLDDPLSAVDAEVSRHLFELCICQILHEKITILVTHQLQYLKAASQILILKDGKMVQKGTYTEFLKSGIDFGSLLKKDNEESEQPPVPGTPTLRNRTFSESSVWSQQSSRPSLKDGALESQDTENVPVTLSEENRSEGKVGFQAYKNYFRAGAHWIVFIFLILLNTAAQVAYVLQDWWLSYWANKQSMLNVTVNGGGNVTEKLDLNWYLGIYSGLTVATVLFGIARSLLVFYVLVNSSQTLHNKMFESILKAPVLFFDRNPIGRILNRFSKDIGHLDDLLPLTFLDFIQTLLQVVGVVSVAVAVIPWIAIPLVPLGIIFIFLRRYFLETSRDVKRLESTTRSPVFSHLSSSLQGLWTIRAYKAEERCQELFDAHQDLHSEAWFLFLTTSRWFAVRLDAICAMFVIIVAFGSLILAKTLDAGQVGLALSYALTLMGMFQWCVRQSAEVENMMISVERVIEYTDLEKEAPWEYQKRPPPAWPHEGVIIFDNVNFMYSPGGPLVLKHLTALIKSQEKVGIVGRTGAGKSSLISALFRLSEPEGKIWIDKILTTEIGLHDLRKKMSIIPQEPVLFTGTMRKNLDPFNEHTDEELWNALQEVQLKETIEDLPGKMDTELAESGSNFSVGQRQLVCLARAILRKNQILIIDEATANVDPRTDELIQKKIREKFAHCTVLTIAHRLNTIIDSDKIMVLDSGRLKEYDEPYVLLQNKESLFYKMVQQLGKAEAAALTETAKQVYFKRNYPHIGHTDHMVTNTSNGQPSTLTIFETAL

[21] = Toxicity in cynomolgus monkey assessed as abnormally cold to touch at 210 mg/kg/day, po bid measured after 4 days; assay type: organism-based, Macaca fascicularis; conditions: in vivo, 96 h, time 4 day
[22] = Toxicity in cynomolgus monkey assessed as appearance of sinusoidal leukocytosis in liver at 50 mg/kg, po bid by microscopic analysis; assay type: organism-based, Macaca fascicularis; conditions: in vivo
[23] = Oral bioavailability in female C57BL/6J mouse at 2 mg/kg, iv measured after 24 hrs by UPLC-MS/MS analysis; assay type: ADME, organism-based; conditions: in vivo
[24] = Toxicity in cynomolgus monkey assessed as decreased activity at 210 mg/kg/day, po bid measured after 4 days; assay type: organism-based, Macaca fascicularis; conditions: in vivo, 96 h, time 4 day

BSEP, sequence (O95342 whole entry): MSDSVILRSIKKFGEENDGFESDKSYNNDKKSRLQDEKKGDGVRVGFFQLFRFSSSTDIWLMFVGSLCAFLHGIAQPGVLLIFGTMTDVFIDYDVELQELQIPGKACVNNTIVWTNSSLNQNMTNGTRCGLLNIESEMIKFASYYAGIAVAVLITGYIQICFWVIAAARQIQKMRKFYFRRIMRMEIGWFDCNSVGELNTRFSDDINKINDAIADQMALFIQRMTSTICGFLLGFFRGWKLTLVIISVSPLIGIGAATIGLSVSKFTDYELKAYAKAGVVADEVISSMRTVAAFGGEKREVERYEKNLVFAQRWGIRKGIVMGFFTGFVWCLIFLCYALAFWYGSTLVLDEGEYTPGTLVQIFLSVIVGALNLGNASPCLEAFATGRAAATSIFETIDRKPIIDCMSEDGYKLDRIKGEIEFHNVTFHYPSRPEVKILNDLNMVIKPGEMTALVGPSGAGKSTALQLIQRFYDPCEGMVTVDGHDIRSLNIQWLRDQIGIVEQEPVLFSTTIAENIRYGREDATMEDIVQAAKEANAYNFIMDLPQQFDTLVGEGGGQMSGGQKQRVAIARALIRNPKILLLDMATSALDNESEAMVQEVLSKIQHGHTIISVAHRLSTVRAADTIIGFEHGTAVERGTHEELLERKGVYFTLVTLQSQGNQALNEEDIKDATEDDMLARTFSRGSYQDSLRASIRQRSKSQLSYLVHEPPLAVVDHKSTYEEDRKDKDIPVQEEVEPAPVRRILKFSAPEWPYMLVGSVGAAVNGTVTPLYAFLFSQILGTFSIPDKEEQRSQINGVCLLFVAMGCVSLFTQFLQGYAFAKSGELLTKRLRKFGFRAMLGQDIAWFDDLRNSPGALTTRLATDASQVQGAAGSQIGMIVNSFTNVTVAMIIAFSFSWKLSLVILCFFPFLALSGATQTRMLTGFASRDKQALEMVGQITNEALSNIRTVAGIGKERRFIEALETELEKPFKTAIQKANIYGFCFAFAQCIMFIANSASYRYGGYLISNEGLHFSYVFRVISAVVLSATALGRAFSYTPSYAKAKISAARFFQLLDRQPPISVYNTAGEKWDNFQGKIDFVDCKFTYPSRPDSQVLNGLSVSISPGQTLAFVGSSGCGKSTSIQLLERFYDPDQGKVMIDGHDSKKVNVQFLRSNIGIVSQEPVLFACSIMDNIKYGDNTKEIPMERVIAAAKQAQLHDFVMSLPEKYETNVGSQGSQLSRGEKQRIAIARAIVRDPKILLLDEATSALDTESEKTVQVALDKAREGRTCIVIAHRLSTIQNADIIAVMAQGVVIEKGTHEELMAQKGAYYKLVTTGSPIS
Lysophosphatidic acid receptor 4, sequence (Q99677 whole entry): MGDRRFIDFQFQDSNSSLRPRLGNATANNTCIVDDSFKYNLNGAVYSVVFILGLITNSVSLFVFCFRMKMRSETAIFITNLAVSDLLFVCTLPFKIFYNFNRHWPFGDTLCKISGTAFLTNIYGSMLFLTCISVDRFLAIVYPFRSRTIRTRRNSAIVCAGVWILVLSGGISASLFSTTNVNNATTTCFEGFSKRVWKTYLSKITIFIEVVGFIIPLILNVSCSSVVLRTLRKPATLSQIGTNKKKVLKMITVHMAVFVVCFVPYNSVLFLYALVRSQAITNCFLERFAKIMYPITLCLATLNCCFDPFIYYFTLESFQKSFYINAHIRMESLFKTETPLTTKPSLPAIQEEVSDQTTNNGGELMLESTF
ATP-binding cassette sub-family C member 2, sequence (Q92887 whole entry): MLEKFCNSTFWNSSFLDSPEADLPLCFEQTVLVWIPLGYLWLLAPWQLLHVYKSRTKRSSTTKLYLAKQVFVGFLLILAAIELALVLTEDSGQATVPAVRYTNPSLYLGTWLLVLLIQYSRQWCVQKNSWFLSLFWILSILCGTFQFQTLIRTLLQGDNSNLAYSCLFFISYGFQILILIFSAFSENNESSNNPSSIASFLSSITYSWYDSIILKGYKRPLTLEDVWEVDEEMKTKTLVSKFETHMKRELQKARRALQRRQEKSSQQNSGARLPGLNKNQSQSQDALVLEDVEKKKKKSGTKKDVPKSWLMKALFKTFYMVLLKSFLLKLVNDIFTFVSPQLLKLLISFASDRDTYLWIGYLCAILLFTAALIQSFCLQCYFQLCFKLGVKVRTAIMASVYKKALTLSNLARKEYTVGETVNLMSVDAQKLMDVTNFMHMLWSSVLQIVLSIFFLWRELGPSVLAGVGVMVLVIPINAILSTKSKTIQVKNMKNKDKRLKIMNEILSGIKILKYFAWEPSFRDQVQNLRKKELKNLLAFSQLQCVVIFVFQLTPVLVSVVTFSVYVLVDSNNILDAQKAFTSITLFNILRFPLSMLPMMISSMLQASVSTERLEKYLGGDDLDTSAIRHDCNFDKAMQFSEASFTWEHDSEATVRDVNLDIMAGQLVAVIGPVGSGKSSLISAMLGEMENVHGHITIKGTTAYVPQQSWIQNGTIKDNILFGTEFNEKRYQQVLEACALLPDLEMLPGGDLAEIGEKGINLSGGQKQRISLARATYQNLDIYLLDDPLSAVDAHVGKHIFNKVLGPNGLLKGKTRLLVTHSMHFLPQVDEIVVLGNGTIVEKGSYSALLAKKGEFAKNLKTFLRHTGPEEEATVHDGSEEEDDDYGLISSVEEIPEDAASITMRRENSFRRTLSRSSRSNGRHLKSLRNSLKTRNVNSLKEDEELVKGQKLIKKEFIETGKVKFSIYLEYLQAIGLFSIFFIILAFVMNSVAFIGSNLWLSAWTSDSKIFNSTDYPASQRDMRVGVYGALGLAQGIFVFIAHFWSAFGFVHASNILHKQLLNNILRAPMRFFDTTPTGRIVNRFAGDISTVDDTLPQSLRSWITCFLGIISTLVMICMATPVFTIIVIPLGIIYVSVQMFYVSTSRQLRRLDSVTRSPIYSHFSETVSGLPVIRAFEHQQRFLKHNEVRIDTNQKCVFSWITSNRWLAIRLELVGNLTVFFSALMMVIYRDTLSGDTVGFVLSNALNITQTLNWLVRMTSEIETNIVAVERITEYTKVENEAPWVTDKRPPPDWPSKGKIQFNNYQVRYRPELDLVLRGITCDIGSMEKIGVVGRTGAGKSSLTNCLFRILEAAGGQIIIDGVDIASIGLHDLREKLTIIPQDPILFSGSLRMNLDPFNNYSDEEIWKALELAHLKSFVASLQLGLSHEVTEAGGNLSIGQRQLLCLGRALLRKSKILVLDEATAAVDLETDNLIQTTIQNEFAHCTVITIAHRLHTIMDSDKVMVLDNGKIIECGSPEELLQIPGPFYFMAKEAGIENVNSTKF

IC50 [1]: > 200 µM
fAUClast [2]: 3675 h/ng/mL
AUClast [3]: 123000 h/ng/mL
Cmax [4]: 41.3 µg/mL
IC50 [5]: 12.6 µM
microsomal CLint at 0.5 µM [6]: 4 µL/min/mg
Cmax [8]: 99.4 µg/mL
fAUClast [10]: 4624 h/ng/mL
clearance [12]: 1.73 mL/min/kg
Tlast [15]: 24 h
AUClast [16]: 247000 h/ng/mL
fCmax [17]: 1479 ng/mL
fCmax [19]: 1553 ng/mL
IC50 [20]: 63.1 µM
bioavailability [23]: 100%
SMILES: Cc1nc(-c2onc(C)c2NC(=O)O[C@H](C)c2ccccc2Cl)ccc1NC(=O)[C@H]1CCCC[C@@H]1C(=O)O
inhibition at 50 µM [7]: 50%
Activity [9]: Toxic
Activity [11]: Toxic
Activity [13]: Non-toxic
Activity [14]: Toxic
Activity [18]: Toxic
Activity [21]: Toxic
Activity [22]: Toxic
Activity [24]: Toxic
